Laboratory results reported in US20050026958A1, “Methods of therapeutic treatment using amounts of retinoid components” (Allergan, Inc., priority 2003, published 2005).
Values belong to the molecule of their own block, whether it stands above or below them.

Experiments:
RXR retinoid receptors = settings: cited from earlier work
[1] = Food effect (high-fat meal vs fast) on pharmacokinetics of tazarotenic acid after 6.3 mg oral tazarotene; type: in vivo, human; settings: healthy subjects
sebum secretion [2] = settings: published reports (Geiger); cited from earlier work
sebum secretion [3] = assay: Sebum output by Sebutape patches in the Example 7 study; type: in vivo, human; settings: oral tazarotene 0.75 to 6 mg once daily, maximum of 86 patients
Procedure: (§1) Sebum output is assessed every 4 weeks at selected centers using the Sebutape® patches, sold by Cuderm Corporation. Urinalysis, chemistry, and hematology values are monitored. Bone formation and resorption assessments (serum bone alkaline phosphatase and serum amino terminal telopeptides, respectively) at selected centers are monitored.

patients = assay: Two placebo-controlled 24-week safety studies of oral tazarotene plus 16- to 24-week dose-response evaluations (Example 3); type: in vivo, human; settings: 4.5 mg orally once daily vs placebo
Procedure: Two multicenter, double-blind, randomized, placebo-controlled 24-week studies of identical design are conducted to evaluate the safety of oral tazarotene. In addition, 16- to 24-week dose-response evaluations are performed.
In the two safety trials, the incidence of adverse side effects with a 4.5 mg dose administered orally once daily is compared to the incidence of the same side effects with a placebo. […] The majority of these were mild in severity and typical of adverse effects associated with oral retinoids.

[4] = system: patients having nodulocystic acne; assay: Two placebo-controlled dose-ranging safety studies of oral tazarotene in nodulocystic acne (Example 4); type: in vivo, human; settings: for joint disorder during treatment period: placebo 0%; for arthralgia during treatment period: placebo 6%; for myalgia during treatment period: placebo 9%; for asthenia during treatment period: placebo 13%; for dry skin during treatment period: placebo 19%; for headache during treatment period: placebo 28%; for cheilitis during treatment period: placebo 31%; for emotional lability (all cases mild): placebo 4%
Procedure: Two placebo-controlled dose-ranging studies are conducted to evaluate the safety of oral tazarotene in patients having nodulocystic acne. In the first study, patients receive orally administered tazarotene at daily doses of 0.4 mg to 2.8 mg in 96 (71+25) patients (12 weeks treatment plus 12 weeks post-treatment). In the second study, daily doses of 0.75 mg to 6 mg tazarotene are administered to 181 patients (24 weeks treatment plus 12 weeks post-treatment).

patients (acne) = assay: Adverse event monitoring in studies of orally administered tazarotene for acne (Table 2); type: in vivo, human; settings: oral tazarotene for acne, combined Studies 1 and 2 (N = 223)
Procedure: Studies are conducted on orally administered tazarotene for the treatment of acne. Adverse events (side effects) are monitored.

patients (psoriasis) = assay: Adverse event monitoring in Phase 3 studies of orally administered tazarotene for psoriasis (Table 1); type: in vivo, human; settings: Taz 4.5 mg, combined Studies 1 and 2 (N = 348)
Procedure: A series of Phase 3 studies are conducted on orally administered tazarotene for the treatment of psoriasis. Adverse events (side effects) are monitored. In addition, published data for acitretin's side effects are also considered.

[5] = system: patients with severe nodulocystic acne; assay: Multicenter double-blind randomized placebo-controlled study of oral tazarotene in severe nodulocystic acne (Example 7); type: in vivo, human
Description: A multicenter, double-blind, randomized, placebo-controlled parallel-group study is undertaken to determine the efficacy of orally administered tazarotene in treating severe nodulocystic acne.
In addition, washout periods for other medications for this study are: 1 week for vitamin A supplements >5000 IU; 2 weeks for topical anti-acne medications (e.g., retinoids, azelaic acid, benzoyl peroxide); 2 weeks for topical or systemic antibiotic therapy that may alter the course of acne; and 6 months for systemic retinoids.
Patients are randomized to receive placebo or oral tazarotene (0.75, 1.5, 3, or 6 mg), in a 1:1:1:1:1 ratio once daily for 24 weeks. After this, the patients are followed without treatment for an additional 12 weeks. Patients discontinuing from the treatment period due to adverse effects or lack of efficacy are eligible for entry into the post-treatment phase.
In the study, overall acne severity is rated as: none (no inflammatory acne lesions); mild (few to several papules or pustules, no nodulocystic lesions); moderate (several to many papules or pustules, few to several nodulocystic lesions); and severe (numerous or extensive papules or pustules, many, for example, at least about 5 or at least about 10, nodulocystic lesions).
Treatment success is defined as at least moderate (about 50%) improvement on the following 7-point global response scale: • 0=completely cleared • 1=almost cleared (about 90% improvement) • 2=marked response (about 75% improvement) • 3=moderate response (about 50% improvement) • 4=slight response (about 25% improvement) • 5=condition unchanged • 6=condition worsened
In this study, facial nodulocystic lesion count includes lesions greater than 5 mm in size. Facial papular/pustular lesion count includes lesions less than or equal to 5 mm in size. Facial non-inflammatory lesion count includes open and closed comedones.
as §1
Bone mineral density of spine and proximal femur at selected centers is monitored. Ligament calcification or osteophyte formation (lateral X-ray of the cervical and thoracic spine, and ankle calcaneous) is monitored. Epiphyseal growth plate closure (internal oblique X-ray of the ankle in patients less than or equal to 21 years old) is monitored.

[6] = oral tazarotene 0.4 to 6 mg daily

effect of high-fat meal on bioavailability or pharmacokinetics of tazarotenic acid ([1]; 6.3 mg oral tazarotene, single and multiple dose): does not substantially affect
average ratio of Cmax values (test/reference) ([1]; Day 0, 6.3 mg oral tazarotene after high fat breakfast vs 8-10 hour fast): 1.00
SMILES: CC1(C)CCSc2ccc(C#Cc3ccc(C(=O)O)cn3)cc21 [tazarotenic acid]
activation of RXR retinoid receptors (RXR retinoid receptors): does not activate

SMILES: CC1=C(/C=C/C(C)=C/C=C/C(C)=C\C(=O)O)C(C)(C)CCC1 [Isotretinoin, isotretinoin]
inhibitory effect on the rate of sebum secretion (sebum secretion [2]): about 90%

SMILES: CC1(C)CC[S+]([O-])c2ccc(C#Cc3ccc(C(=O)O)cn3)cc21 (centres unmarked) [sulfoxide derivative]
activation of RXR retinoid receptors (RXR retinoid receptors): does not activate

bone formation and resorption (serum bone alkaline phosphatase, serum amino terminal telopeptides) ([5]; all treatment groups): do not appear to be altered
SMILES: CCOC(=O)c1ccc(C#Cc2ccc3c(c2)C(C)(C)CCS3)nc1 [tazarotene]
effect on sebum secretion relative to placebo (Sebutape method) (sebum secretion [3]): does not substantially reduce sebum secretion relative to placebo
incidence of ocular, auditory, or thyroid problems (patients): no statistically significant between-group differences
joint disorder during treatment period ([4]; 2.8 mg, n=11): 27%
arthralgia during treatment period ([4]; 2.8 mg, n=11): 9%
myalgia during treatment period ([4]; 2.8 mg, n=11): 0%
asthenia during treatment period ([4]; 2.8 mg, n=11): 0%
dry skin during treatment period ([4]; 2.8 mg, n=11): 18%
headache during treatment period ([4]; 2.8 mg, n=11): 9%
cheilitis during treatment period ([4]; 2.8 mg, n=11): 64%
emotional lability (all cases mild) ([4]; 3 mg group (1 patient)): 3%
depression ([4]; 3 mg group (3 patients: 2 mild, 1 severe), placebo 2%): 8%
joint disorder during treatment period ([4]; 3 mg, n=37): 14%
arthralgia during treatment period ([4]; 3 mg, n=37): 8%
myalgia during treatment period ([4]; 3 mg, n=37): 16%
asthenia during treatment period ([4]; 3 mg, n=37): 19%
dry skin during treatment period ([4]; 3 mg, n=37): 35%
headache during treatment period ([4]; 3 mg, n=37): 19%
cheilitis during treatment period ([4]; 3 mg, n=37): 78%
emotional lability (all cases mild) ([4]; 6 mg group (5 patients)): 14%
joint disorder during treatment period ([4]; 6 mg, n=36): 19%
arthralgia during treatment period ([4]; 6 mg, n=36): 28%
myalgia during treatment period ([4]; 6 mg, n=36): 25%
asthenia during treatment period ([4]; 6 mg, n=36): 19%
dry skin during treatment period ([4]; 6 mg, n=36): 50%
headache during treatment period ([4]; 6 mg, n=36): 36%
cheilitis during treatment period ([4]; 6 mg, n=36): 94%
severe dry skin ([4]; all groups): No patient has severe dry skin
changes in urinalysis, chemistry, or hematology measures (incl. liver function tests, triglycerides, total cholesterol, HDL cholesterol) [4, 6]: no consistent dose-related clinically significant changes
ligament calcification, osteophyte formation, changes in serum bone alkaline phosphatase, serum amino terminal telopeptides, bone density [4, 6]: not associated with any clinically significant
Conjunctivitis (patients (acne)): 0 (0.0) number (%) of patients
Irritation of eyes (patients (acne)): 0 (0.0) number (%) of patients
Atrophy of skin (patients (psoriasis)): 0 (0.0) number (%) of patients
Hyperesthesia (patients (psoriasis)): 0 (0.0) number (%) of patients
Paresthesia (patients (psoriasis)): 7 (2.0) number (%) of patients
patients withdrawing due to adverse events in treatment period ([5]; 0.75 mg group (2/35), placebo 0%): 6%
patients withdrawing due to adverse events in treatment period ([5]; 1.5 mg group (0/37)): 0%
incidence of treatment success (≧50% global improvement) vs placebo ([5]; 3 mg and 6 mg, week 24 and throughout post-treatment phase (p≦0.05)): significantly higher incidence of treatment success
patients withdrawing due to adverse events in treatment period ([5]; 3 mg group (2/37)): 5%
patients withdrawing due to adverse events in treatment period ([5]; 6 mg group (1/36)): 3%
changes in urinalysis, chemistry, or hematology measures (incl. liver function tests, triglycerides, total cholesterol, HDL cholesterol) ([5]; all treatment groups): None of the treatment groups show any consistent clinically significant changes
ligament calcification, osteophyte formation, or changes in bone density ([5]; all treatment groups): None of the treatment groups show any clinically significant
